The values that follow are results of earlier work, collected in patent US20190037897A1, “AMORPHOUS COOLER DISPERSION COMPOSITION” (International Flavors & Fragrances Inc., priority 2016, published 2019).

For the data set the following is noted: compared to menthol (as 100).
On to `CCNC(=O)C1CC(C)CCC1C(C)C` (stereo not shown) [WS-3, N-Ethyl-p-menthane-3-carboxamide], for which the relative cooling strength was 150.

Regarding `CC1CCC(C(C)C)C(O)C1` (stereo not shown) [menthol], the relative cooling strength is 100.

`COc1ccc(NC(=O)[C@@H]2C[C@H](C)CC[C@H]2C(C)C)cc1` [WS-12, (1R,2S,5R)-N-(4-Methoxyphenyl)-p-menthanecarboxamide]: the relative cooling strength is given as 150.

With “Ethyl 3-(p-menthane-3-carboxamido)acetate [WS-5]”, the relative cooling strength is 400.
